This series in a line: xn = mol fraction of the nth substance listed. To be noted: 298.15 K, 100 kPa.

In a compilation of properties of binary mixtures (doi:10.1016/j.molliq.2018.12.024) one finds viscosity and electrical conductivity data, which are given here for eight compounds.

As for `CC(=O)[O-].Cn1cc[nH+]c1` + CCCC[N+]1(C)CCCC1.O=S(=O)([N-]S(=O)(=O)C(F)(F)F)C(F)(F)F, the viscosity (commonly the resistance of a fluid to flow) was determined as 59.5 mPa·s (x1 = 0.1); 38.8 mPa·s (x1 = 0.31); 33.3 mPa·s (x1 = 0.4); 21.1 mPa·s (x1 = 0.59); 15.9 mPa·s (x1 = 0.71); 12.1 mPa·s (x1 = 0.8).

On to `CC(=O)[O-].Cn1cc[nH+]c1` + CCCC[n+]1ccn(C)c1.O=S(=O)([N-]S(=O)(=O)C(F)(F)F)C(F)(F)F, for which the viscosity (x1 = 0.1) is 42.8 mPa·s; the viscosity (x1 = 0.19) worked out at 38.4 mPa·s; the viscosity (x1 = 0.31) was found to be 33.5 mPa·s; the viscosity (x1 = 0.4) turned out to be 28.8 mPa·s; the viscosity (x1 = 0.5) is given as 24.5 mPa·s; the viscosity (x1 = 0.59) is reported as 20.2 mPa·s. The compound further gave a viscosity (x1 = 0.71) of 15.5 mPa·s, a viscosity (x1 = 0.8) of 12.2 mPa·s and a viscosity (x1 = 1) of 6.22 mPa·s.

For the compound `CCCC[N+]1(C)CCCC1.O=S(=O)([N-]S(=O)(=O)C(F)(F)F)C(F)(F)F` + CC(=O)[O-].Cn1cc[nH+]c1, the viscosity (x2 = 0) was determined as 74.9 mPa·s.

On to `CCCC[n+]1ccn(C)c1.O=S(=O)([N-]S(=O)(=O)C(F)(F)F)C(F)(F)F` + CC(=O)[O-].Cn1cc[nH+]c1, for which the viscosity (x2 = 0) stood at 49.3 mPa·s.

With `CC(=O)[O-].Cn1cc[nH+]c1` + CC(=O)[O-].C[NH+]1CCOCC1, the electrical conductivity (x1 = 1) is 0.448 S/m.

Take `CC(=O)[O-].C[NH+]1CCOCC1` + CC(=O)[O-].Cn1cc[nH+]c1: the electrical conductivity by setting is: (x2 = 0) 0.0229 S/m; (x2 = 0.1) 0.0447 S/m; (x2 = 0.19) 0.0662 S/m; (x2 = 0.31) 0.0959 S/m; (x2 = 0.4) 0.158 S/m; (x2 = 0.5) 0.202 S/m. In addition, the electrical conductivity (x2 = 0.59) worked out at 0.242 S/m and the electrical conductivity (x2 = 0.8) was determined as 0.331 S/m.

In the case of `CC(=O)[O-].Cn1cc[nH+]c1` + COS(=O)(=O)[O-].Cn1cc[n+](C)c1, the viscosity is listed as 19.9 mPa·s (x1 = 0.71), 13.6 mPa·s (x1 = 0.8) and 6.22 mPa·s (x1 = 1).

With `COS(=O)(=O)[O-].Cn1cc[n+](C)c1` + CC(=O)[O-].Cn1cc[nH+]c1, the viscosity (x2 = 0) stood at 93.4 mPa·s.
